Measured values: publication PMC10223164, “Exploration of the Transglycosylation Activity of Barley Limit Dextrinase for Production of Novel Glycoconjugates” (Molecules, 2023)

Target: T1, HvLD (barley limit dextrinase) (Hordeum vulgare, UniProt Q9FYY0)
T1 sequence (Q9FYY0 1-905 limits assumed): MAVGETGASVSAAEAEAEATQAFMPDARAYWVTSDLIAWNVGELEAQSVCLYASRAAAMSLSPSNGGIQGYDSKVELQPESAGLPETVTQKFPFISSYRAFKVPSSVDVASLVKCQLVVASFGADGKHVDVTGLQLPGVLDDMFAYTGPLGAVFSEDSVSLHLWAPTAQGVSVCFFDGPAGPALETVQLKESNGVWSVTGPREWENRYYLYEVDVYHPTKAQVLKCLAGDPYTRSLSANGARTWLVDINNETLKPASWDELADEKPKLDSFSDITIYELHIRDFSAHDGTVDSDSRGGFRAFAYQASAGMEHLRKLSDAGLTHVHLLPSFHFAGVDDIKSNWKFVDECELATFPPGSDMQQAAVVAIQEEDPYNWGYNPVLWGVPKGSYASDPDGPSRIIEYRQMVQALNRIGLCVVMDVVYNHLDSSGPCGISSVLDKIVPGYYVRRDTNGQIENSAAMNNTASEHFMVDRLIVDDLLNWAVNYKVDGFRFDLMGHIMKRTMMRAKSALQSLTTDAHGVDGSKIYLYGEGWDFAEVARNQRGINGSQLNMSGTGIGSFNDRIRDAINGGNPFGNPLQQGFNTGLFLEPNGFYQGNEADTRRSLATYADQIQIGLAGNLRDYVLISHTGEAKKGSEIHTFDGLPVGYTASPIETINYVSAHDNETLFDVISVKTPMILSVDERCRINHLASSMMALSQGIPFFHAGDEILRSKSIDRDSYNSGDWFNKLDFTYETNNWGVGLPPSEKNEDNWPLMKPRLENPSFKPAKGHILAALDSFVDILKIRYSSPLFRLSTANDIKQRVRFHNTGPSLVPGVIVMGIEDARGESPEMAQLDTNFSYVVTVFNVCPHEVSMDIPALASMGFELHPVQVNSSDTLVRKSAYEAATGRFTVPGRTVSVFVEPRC
Assay: LC-ESI-MS with UV quantification of transglycosylation products
Format: biochemical
Details: glycosyl donor, 10 mg/mL; acceptors pNP-sugars 8-14 mM; 20 mM sodium acetate pH 5.5; 5 mM CaCl2; 37 °C, 2 h

For `OC[C@H]1O[C@H](OC[C@H]2O[C@H](O[C@H]3[C@H](O)[C@@H](O)[C@@H](O[C@H]4[C@H](O)[C@@H](O)[C@@H](OC[C@H]5O[C@H](O[C@H]6[C@H](O)[C@@H](O)[C@@H](O[C@H]7[C@H](O)[C@@H](O)C(O)O[C@@H]7CO)O[C@@H]6CO)[C@H](O)[C@@H](O)[C@@H]5O)O[C@@H]4CO)O[C@@H]3CO)[C@H](O)[C@@H](O)[C@@H]2O)[C@H](O)[C@@H](O)[C@@H]1O` (stereo partly drawn) [G1G3G3, 6^3-α-(6^3-α-D-glucosyl-maltotriosyl)-maltotriose], the “LC-ESI-MS with UV quantification of transglycosylation products” value was “G1G3G3 could serve as donor in HvLD TG reactions with all five pNP-sugars”.
